Assay results from patent US20240368664A1, “LIVE YEAST BIOSENSORS AND METHODS OF USE THEREOF” (priority 2021, published 2024).
No end group written: not given here.

How the values were obtained:
[1] = system: mutant SsSte2; format: cell-based, Scheffersomyces stipites
[2] = system: SsSte2 mutants; format: cell-based, Scheffersomyces stipites

With KHWPQIAQFAPS [nucleocapsid epitope] the EC50 [1] was about 10 µM and the “biosensor signal compared to signal in the presence of water” value [2] was “over twice as strong”.
